Data set [1] has as its target PDE 2A (Homo sapiens (Human), UniProt O00408). In words: Phosphodiesterase (PDE) 2A assay with fluorescent substrate (IMAP, fluorescence polarization). It counts as biochemical. As to conditions: PDE2A, read-out: PDE2 IC50. As for the experimental part:
(§1) The IMAP system (Molecular Device) using fluorescence polarization (FP) as detection principle was used to measure enzyme activity. A fluorescent labeled cAMP was used as substrate for the reaction, generating a labeled AMP. The fluorescent AMP binds specifically to the large M(III)-based nano-particles which reduces the rotational speed of the substrate and thus increases its polarization. Detailed Method: The inhibition of PDE 2A or 10 enzyme activity was assessed using IMAP-Phosphodiesterase-cAMP fluorescence labeled substrate (Molecular Devices, Order No. R7506), IMAP TR-FRET screening express (Molecular Devices, Order No. R8160, the TR-FRET component will not be used) and PDE 2A or PDE10 protein expressed upon baculovirus infection in SF9 cells. The cells were incubated after infection for ˜3 days and protein production was confirmed by Western Blot. The cells were collected by centrifugation and the pellet frozen in liquid nitrogen before it was resuspended in PBS containing 1% Triton X-100 and protease inhibitors. After 45 min incubation on ice, the cell debris was removed by centrifugation (13.000 rpm, 30 min). […] All reactions were performed in 384 well plates, Perkin Elmer black optiplates and IMAP reaction buffer with 0.1% Tween20 (kit component) Compounds were serial diluted in DMSO. […] Reaction is stopped by adding of 60 μl binding buffer for FP/cAMP (kit component).

In data set [2] the target is PDE10 (Homo sapiens (Human), UniProt Q9Y233). The data set can be described thus: Phosphodiesterase (PDE) 10 assay with fluorescent substrate (IMAP, fluorescence polarization). It counts as biochemical. As for the experimental part: as §1
In general terms: Polarisation of emitted light reports the rotation of a fluorescent probe.

The subject of data set [3] is human MDR1 P-gp. In words: Assessment of efflux in MDCK cells transfected with the human MDR1 gene (MDCK assay). The format is in vitro ADME, canine. As to conditions: dog. Here is the method:
Assessment of Efflux in Madin-Darby Canine Kidney Cells Transfected with the Human MDR1 Gene (MDCK Assay)
Apparent permeability coefficients (PE) of the compounds across the MDCK-MDR1 cell monolayers are measured (pH 7.4, 37° C.) in apical-to-basal (AB) and basal-to-apical (BA) transport direction. AB permeability (PEAB) represents drug absorption from the blood into the brain and BA permeability (PEBA) drug efflux from the brain back into the blood via both passive permeability as well as active transport mechanisms mediated by efflux and uptake transporters that are expressed on the MDCK-MDR1 cells, predominantly by the overexpressed human MDR1 P-gp. The compounds are assigned to permeability/absorption classes by comparison of the AB permeabilities with the AB permeabilities of reference compounds with known in vitro permeability and oral absorption in the human. Identical or similar permeabilities in both transport directions indicate passive permeation, vectorial permeability points to additional active transport mechanisms. Higher PEBA than PEAB indicates the involvement of active efflux mediated by MDR1 P-gp. […]
MDCK-MDR1 cells (1-2×10e5 cells/1 cm2 area) are seeded on filter inserts (Costar transwell polycarbonate or PET filters, 0.4 μm pore size) and cultured (DMEM) for 7 days. […] Efflux ratio is calculated dividing the Papp (b-a) values by the Papp (a-b) values.

Molecules are shown by their SMILES.

Chain of PDE 2A (O00408 whole entry, species assumed): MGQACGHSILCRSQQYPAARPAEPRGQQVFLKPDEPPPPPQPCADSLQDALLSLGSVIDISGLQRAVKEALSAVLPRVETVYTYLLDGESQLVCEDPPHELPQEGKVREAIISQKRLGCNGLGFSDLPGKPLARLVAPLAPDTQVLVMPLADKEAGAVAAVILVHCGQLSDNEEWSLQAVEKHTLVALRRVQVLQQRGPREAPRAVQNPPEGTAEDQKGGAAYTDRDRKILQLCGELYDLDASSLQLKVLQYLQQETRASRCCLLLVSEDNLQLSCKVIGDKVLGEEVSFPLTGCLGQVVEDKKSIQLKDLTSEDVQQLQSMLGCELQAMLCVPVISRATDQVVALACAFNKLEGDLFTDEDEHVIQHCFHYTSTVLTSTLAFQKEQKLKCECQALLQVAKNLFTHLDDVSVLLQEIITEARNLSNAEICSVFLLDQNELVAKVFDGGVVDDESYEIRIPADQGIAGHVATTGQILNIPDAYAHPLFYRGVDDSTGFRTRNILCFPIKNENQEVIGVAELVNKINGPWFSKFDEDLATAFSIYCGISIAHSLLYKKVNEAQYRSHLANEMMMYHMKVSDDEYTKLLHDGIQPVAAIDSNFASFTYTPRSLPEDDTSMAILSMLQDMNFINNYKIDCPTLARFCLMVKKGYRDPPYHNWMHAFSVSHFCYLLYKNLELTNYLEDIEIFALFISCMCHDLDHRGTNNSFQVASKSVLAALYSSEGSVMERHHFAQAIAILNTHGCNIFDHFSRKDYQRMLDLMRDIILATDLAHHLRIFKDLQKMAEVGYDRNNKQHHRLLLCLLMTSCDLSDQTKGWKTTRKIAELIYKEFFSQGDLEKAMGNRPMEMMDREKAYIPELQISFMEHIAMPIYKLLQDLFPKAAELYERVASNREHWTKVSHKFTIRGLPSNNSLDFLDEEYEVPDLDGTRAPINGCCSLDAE
Chain of PDE10 (Q9Y233 whole entry): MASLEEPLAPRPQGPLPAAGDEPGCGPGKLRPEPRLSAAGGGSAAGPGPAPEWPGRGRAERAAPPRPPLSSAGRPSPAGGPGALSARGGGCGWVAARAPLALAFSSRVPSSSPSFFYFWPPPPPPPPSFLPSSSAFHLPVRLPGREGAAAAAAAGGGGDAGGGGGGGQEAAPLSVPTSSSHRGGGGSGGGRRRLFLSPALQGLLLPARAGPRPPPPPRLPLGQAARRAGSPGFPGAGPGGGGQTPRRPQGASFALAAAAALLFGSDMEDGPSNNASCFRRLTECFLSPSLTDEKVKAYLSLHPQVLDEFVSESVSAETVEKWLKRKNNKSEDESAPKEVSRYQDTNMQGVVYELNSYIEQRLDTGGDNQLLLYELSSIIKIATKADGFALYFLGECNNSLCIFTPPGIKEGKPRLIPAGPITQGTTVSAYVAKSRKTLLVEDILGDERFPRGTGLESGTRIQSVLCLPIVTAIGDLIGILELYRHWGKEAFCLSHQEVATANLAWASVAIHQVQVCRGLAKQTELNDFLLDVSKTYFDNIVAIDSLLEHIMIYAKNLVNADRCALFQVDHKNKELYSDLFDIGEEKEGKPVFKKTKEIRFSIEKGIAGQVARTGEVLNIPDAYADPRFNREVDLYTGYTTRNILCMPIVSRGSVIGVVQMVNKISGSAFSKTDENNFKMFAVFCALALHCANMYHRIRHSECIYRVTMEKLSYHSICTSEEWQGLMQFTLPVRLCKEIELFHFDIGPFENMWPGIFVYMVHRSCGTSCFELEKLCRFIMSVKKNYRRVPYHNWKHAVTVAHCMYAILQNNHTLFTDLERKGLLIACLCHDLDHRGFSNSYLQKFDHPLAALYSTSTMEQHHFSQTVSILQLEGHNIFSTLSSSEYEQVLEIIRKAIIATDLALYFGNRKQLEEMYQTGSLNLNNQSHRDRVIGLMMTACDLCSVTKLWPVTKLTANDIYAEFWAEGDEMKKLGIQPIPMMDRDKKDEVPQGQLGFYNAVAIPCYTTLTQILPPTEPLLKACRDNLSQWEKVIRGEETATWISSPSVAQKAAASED

Turning to `Cc1nn2cc(C3CC3)cnc2c1C(=O)NC1(c2ccc(C(F)(F)F)cn2)CCOCC1` [Example 25], the IC50 in data set [1] is 0.088 µM; in data set [2], 9.07 µM. Also, the efflux ratio in data set [3] (pH 7.4, MDCK-MDR1, Papp (b-a) divided by Papp (a-b)) came out at 0.8. For the same molecule, in data set [3] (MDCK-MDR1, apical-to-basal, pH 7.4, 37° C.), the Papp A→B was 100 ×10⁻⁶ cm/s.

The term IC50 denotes the midpoint of a concentration-inhibition curve. As a reminder, the efflux ratio is a quotient of directional permeabilities that is used to spot active efflux. Broadly, the Papp A→B is the apparent permeability from the apical to the basolateral side of a cell layer. Lower therefore signals slow passage.
